Where “and” joins values, the source holds several entries; their conditions need not be identical. Equal entries are not always repeated.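 All cell lines were grown in 96-well plates and treated with compound for 48 hours. GI50: concentration for 50% inhibition of growth. TGI marks complete inhibition of growth.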
What was measured:
Assay in all cases: growth of human tumour cells (NCI), 48 h
NCI-H23 lung = test system: NCI-H23 lung
OVCAR-3 ovarian = test system: OVCAR-3 ovarian
SW-620 colon = test system: SW-620 colon
HCT-15 colon = test system: HCT-15 colon
UACC-62 melanoma = test system: UACC-62 melanoma
HT29 colon = test system: HT29 colon
SK-MEL-5 melanoma = test system: SK-MEL-5 melanoma
RXF 393 renal = test system: RXF 393 renal
MALME-3M melanoma = test system: MALME-3M melanoma

Row | SMILES | GI50 (NCI-H23 lung) | TGI (NCI-H23 lung) | GI50 (OVCAR-3 ovarian) | TGI (OVCAR-3 ovarian) | GI50 (SW-620 colon) | TGI (SW-620 colon) | GI50 (HCT-15 colon) | TGI (HCT-15 colon) | GI50 (UACC-62 melanoma) | TGI (UACC-62 melanoma) [µM] | GI50 (HT29 colon) | TGI (HT29 colon) | GI50 (SK-MEL-5 melanoma) | TGI (SK-MEL-5 melanoma) [µM] | GI50 (RXF 393 renal) | TGI (RXF 393 renal) | GI50 (MALME-3M melanoma) [µM] | TGI (MALME-3M melanoma) [µM]
1 | CC(=O)OC[C@]12CC[C@H]3[C@@H](C[C@H]4O[C@]45[C@@H](O)C=CC(=O)[C@]35C)[C@@H]1CC[C@@H]2[C@H](C)[C@H]1CC(C)=C(C)C(=O)O1 | 0.185 µM and 0.324 µM | 0.371 µM and 0.858 µM | 0.314 µM and 0.176 µM | 0.842 µM and 0.548 µM | 0.274 µM and 0.141 µM | 0.744 µM and 0.463 µM | 0.294 µM and 0.177 µM | 0.751 µM and 0.371 µM | 0.481 µM and 0.479 µM | 1.58 | 0.302 µM and 0.305 µM | 0.716 µM and 0.961 µM | 0.702 µM and 0.664 µM | 2.02 | 0.247 µM and 0.388 µM | 0.791 µM and 1.13 µM | 1.11 | 2.4
2 | COc1cc(OC(=O)c2c(O)cc(O)c(O)c2C)cc(C)c1C(=O)Oc1cc(C)c(C(=O)O)c(O)c1 | – | > 100 µM | – | > 100 µM | – | > 100 µM | – | > 100 µM | – | > 100 | – | > 100 µM | – | > 100 | – | > 100 µM | – | > 100
3 | COC(=O)C1=NC(=S)NC(c2ccccc2)C1c1nc2ccccc2s1 (stereo not drawn) | – | > 100 µM | – | > 100 µM | – | > 100 µM | – | > 100 µM | – | > 100 | – | > 100 µM | – | > 100 | – | > 100 µM | – | > 100
4 | CC(=O)[CH-]C(=O)c1ccccc1.CC(=O)[CH-]C(=O)c1ccccc1.O=C([O-])c1ccc([O-])cc1.O=C([O-])c1ccc([O-])cc1.[Ti+4] | 66.2 µM | > 100 µM | 33.4 µM | > 100 µM | 43 µM | > 100 µM | 56.6 µM | > 100 µM | 37.2 µM | > 100 | 51.2 µM | > 100 µM | 43.9 µM | > 100 | 15.3 µM | 56.4 µM | 23.6 | 66.8
5 | O=C(O)CP(=S)(S)c1ccccc1 (stereo not drawn) | – | > 100 µM | – | – | – | > 100 µM | – | – | – | > 100 | – | > 100 µM | – | > 100 | – | > 100 µM | – | > 100
6 | CN(C)P(=O)(/C(N)=N/Nc1ccc([N+](=O)[O-])cc1)N(C)C | – | > 100 µM | – | > 100 µM | – | > 100 µM | – | > 100 µM | – | > 100 | – | – | – | > 100 | – | – | – | > 100
7 | Cc1ccc(Nc2nc3c(s2)C(=O)c2ccccc2C3=O)c(C)c1 | – | 25.6 µM | – | 27.5 µM | – | 43.5 µM | – | 41.5 µM | – | 29.5 | – | 48.3 µM | – | 28.2 | – | 29.6 µM | – | 26.9
8 | CCOC(=O)NC(=O)c1cn(CCOCCOC(=O)NCCCCCCNC(=O)OCCOCCn2cc(C(=O)NC(=O)OCC)c(=O)[nH]c2=O)c(=O)[nH]c1=O | – | > 100 µM | – | > 100 µM | – | > 100 µM | – | > 100 µM | – | > 100 | – | > 100 µM | – | > 100 | – | > 100 µM | – | > 100
9 | CC1=C2C(=O)O[C@@H](c3ccoc3)[C@]2(C)CCC1 | – | > 100 µM | – | > 100 µM | – | > 100 µM | – | > 100 µM | – | > 100 | – | > 100 µM | – | > 100 | – | – | – | > 100
10 | Cc1cccc(NC(=O)C(=O)Cc2nc3ccccc3[nH]c2=O)c1C | – | > 100 µM | – | > 100 µM | – | > 100 µM | – | > 100 µM | – | > 100 | – | > 100 µM | – | > 100 | – | > 100 µM | – | > 100

From PubChem BioAssay (NCI)
